# Measurements from US20090239861A1, “QUINAZOLINE DERIVATIVES AS ANTICANCER AGENTS” (priority 2005, published 2009).
# Experiments:
# EGFR tyrosine kinase = molecular target: T1, EGFR tyrosine kinase (Homo sapiens, UniProt P00533); experiment: Protein tyrosine kinase phosphorylation assay, Test (a), EGFR; assay type: biochemical; details: ATP at Km concentration; read-out: IC50 Test (a): Inhibition of EGFR tyrosine kinase protein phosphorylation
# T1 construct: Recombinant intracellular fragments of EGFR, erbB2 and erbB4; made in house; host or cells: baculovirus/Sf21 insect cells
# Protocol: (§1) a) Protein Tyrosine Kinase phosphorylation Assays
# (§2) This test measures the ability of a test compound to inhibit the phosphorylation of a tyrosine containing polypeptide substrate by EGFR, erbB2 and erbB4 tyrosine kinase enzyme.
# (§3) Recombinant intracellular fragments of EGFR, erbB2 and erbB4 (accession numbers X00588, X03363 and L07868 respectively) were cloned and expressed in the baculovirus/Sf21 system. […]
# (§4) Constitutive kinase activity of these recombinant proteins was determined by their ability to phosphorylate a synthetic peptide (made up of a random co-polymer of Glutamic Acid, Alanine and Tyrosine in the ratio of 6:3:1). […]
# (§5) The immobilised phospho-peptide product of the reaction was detected by immunological methods. […] After further washing, HRP activity in each well of the plate was measured colorimetrically using 22′-Azino-di-[3-ethylbenzthiazoline sulfonate (6)]diammonium salt crystals (ABTS™ from Roche) as a substrate.
# (§6) Quantification of colour development and thus enzyme activity was achieved by the measurement of absorbance at 405 nm on a Molecular Devices ThermoMax microplate reader. Kinase inhibition for a given compound was expressed as an IC50 value. […] The range of phosphorylation was calculated from the positive (vehicle plus ATP) and negative (vehicle minus ATP) control values.
# erbB2 tyrosine kinase = molecular target: T2, erbB2 tyrosine kinase (Homo sapiens, UniProt P04626); experiment: Protein tyrosine kinase phosphorylation assay, Test (a), erbB2; assay type: biochemical; details: ATP at Km concentration; read-out: IC50 Test (a): Inhibition of erbB2 tyrosine kinase protein phosphorylation
# T2 construct: Recombinant intracellular fragments of EGFR, erbB2 and erbB4; made in house; host or cells: baculovirus/Sf21 insect cells
# Protocol: as §1, §2, §3, §4, §5, §6
# T2 sequence (P04626 676-1255 limits assumed): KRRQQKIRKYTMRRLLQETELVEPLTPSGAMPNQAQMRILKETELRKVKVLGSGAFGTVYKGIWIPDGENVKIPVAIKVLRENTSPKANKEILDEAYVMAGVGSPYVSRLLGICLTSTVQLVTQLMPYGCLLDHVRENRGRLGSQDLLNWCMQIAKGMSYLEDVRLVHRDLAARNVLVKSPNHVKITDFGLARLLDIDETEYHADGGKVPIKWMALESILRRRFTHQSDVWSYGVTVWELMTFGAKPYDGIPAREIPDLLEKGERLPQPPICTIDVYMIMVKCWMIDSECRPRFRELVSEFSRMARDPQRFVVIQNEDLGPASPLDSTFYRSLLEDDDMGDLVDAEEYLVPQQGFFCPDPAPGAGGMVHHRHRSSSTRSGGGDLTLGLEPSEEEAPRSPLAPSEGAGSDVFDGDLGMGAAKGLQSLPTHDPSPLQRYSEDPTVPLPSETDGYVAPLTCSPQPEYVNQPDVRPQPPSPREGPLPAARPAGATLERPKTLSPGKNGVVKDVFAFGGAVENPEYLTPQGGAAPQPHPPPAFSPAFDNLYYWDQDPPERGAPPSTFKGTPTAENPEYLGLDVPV
# T1 sequence (P00533 669-1210 limits assumed): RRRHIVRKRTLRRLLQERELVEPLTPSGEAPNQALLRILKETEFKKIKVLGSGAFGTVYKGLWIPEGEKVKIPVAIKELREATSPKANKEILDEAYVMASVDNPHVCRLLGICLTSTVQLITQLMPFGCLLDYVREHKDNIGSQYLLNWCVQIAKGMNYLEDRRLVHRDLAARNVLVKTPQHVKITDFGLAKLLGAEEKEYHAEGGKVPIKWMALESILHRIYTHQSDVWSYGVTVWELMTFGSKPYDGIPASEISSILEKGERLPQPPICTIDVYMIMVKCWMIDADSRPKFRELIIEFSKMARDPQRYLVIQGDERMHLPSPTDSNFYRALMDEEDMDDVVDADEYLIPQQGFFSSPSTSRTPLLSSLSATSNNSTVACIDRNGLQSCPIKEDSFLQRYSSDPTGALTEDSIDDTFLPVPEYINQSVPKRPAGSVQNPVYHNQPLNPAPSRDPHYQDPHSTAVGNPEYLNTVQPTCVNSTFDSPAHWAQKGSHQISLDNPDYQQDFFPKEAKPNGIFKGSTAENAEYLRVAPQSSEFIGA
IC50 (EGFR tyrosine kinase) [nM],IC50 (erbB2 tyrosine kinase) [nM],Compound
370,11,"C[C@@H](Oc1cccc2ncnc(Nc3ccc4c(ccn4Cc4ccccn4)c3)c12)C(=O)N(C)CCO [Example 1, (2R)—N-(2-Hydroxyethyl)-N-methyl-2-[(4-{[1-(pyridin-2-ylmethyl)-1H-indol-5-yl]amino}quinazolin-5-yl)oxy]propanamide]"
170,15,"C[C@@H](Oc1cccc2ncnc(Nc3ccc4c(ccn4Cc4ccccn4)c3)c12)C(=O)N(C)C [Example 2, (2R)—N,N-Dimethyl-2-[(4-{[1-(pyridin-2-ylmethyl)-1H-indol-5-yl]amino}quinazolin-5-yl)oxy]propanamide]"
